In one data set the target is T1, 5-HT2A receptors (Homo sapiens, UniProt P28223).
T1 construct: 5-HT1A and 5-HT2A receptors in post-mortem human brain tissue from the hippocampus and frontal cortex, respectively; tissue Edinburgh Sudden Death Brain Bank; host or cells: post-mortem human frontal cortex membranes
The experiment in a line: Radioligand binding ([3H]MDL-100,907) to 5-HT2A receptors in post-mortem human frontal cortex membranes.

The target in the next data set is T2, 5-HT1A receptors (Homo sapiens, UniProt P08908).
T2 construct: 5-HT1A and 5-HT2A receptors in post-mortem human brain tissue from the hippocampus and frontal cortex, respectively; tissue Edinburgh Sudden Death Brain Bank; host or cells: post-mortem human hippocampus membranes
T2 sequence (P08908 1-422): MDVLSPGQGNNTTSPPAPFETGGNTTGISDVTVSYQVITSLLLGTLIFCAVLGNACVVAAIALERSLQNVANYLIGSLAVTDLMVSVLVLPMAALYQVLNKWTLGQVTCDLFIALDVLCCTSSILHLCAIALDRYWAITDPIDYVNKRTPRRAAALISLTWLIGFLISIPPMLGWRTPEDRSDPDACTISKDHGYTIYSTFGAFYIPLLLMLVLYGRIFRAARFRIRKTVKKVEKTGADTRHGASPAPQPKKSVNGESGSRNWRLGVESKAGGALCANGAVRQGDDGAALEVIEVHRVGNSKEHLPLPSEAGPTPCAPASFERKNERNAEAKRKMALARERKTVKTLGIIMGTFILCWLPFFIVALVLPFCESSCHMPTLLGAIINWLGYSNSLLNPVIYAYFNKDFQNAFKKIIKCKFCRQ
The experiment in a line: Radioligand binding ([3H]8-OH-DPAT) to 5-HT1A receptors in post-mortem human hippocampus membranes.

Data set [1] can be described thus: Pharmacokinetics of 5-MeO-DMT and bufotenine after inhalation of 5-MeO-DMT in subjects. Format: in vivo, human.

T1 sequence (P28223 whole entry): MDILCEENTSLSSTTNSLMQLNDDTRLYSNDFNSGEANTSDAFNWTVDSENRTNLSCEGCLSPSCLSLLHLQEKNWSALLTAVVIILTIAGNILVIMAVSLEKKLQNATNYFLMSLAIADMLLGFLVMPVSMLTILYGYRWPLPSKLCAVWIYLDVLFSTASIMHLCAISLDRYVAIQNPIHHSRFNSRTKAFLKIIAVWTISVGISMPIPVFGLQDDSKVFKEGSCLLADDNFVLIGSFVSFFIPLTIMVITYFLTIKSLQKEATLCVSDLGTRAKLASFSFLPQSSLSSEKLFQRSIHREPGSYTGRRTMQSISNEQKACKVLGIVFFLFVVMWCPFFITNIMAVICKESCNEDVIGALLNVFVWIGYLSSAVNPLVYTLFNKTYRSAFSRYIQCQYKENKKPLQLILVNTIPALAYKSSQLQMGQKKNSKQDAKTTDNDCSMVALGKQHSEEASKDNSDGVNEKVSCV

On to `CN(C)CCc1c[nH]c2ccccc12` [DMT, N,N-dimethyltryptamine], for which, at 5-HT2A receptors, the “affinity for 5-HT2A receptors (in words)” value is “comparatively weak affinity”. In addition, on 5-HT1A receptors, the “affinity for 5-HT1A receptors (in words)” value is “moderate affinity”.

As for `CN(C)CCc1c[nH]c2ccc(O)cc12` [bufotenine], the “bufotenine blood concentration above LLOQ (25 pg/ml)” value in data set [1] (metabolite after inhaled 5-MeO-DMT) is reported as “Only in few samples”. In data set [1] (uptitration scheme), the “bufotenine observations when uptitration subjects were included” value is given as “Substantially similar observations”.

In the case of `CN(C)CCc1c[nH]c2cccc(O)c12` [psilocin], at 5-HT2A receptors, the “affinity for 5-HT2A receptors (in words)” value is given as “moderate/strong affinity”. For the same compound, the “affinity for 5-HT1A receptors (in words)” value on 5-HT1A receptors is “moderate affinity”.

The values above are taken from patent US20250213533A1 (GH RESEARCH IRELAND LIMITED, priority 2022, published 2025).
